Reference: publication PMC6566410, “Novel Diamide-Based Benzenesulfonamides as Selective Carbonic Anhydrase IX Inhibitors Endowed with Antitumor Activity: Synthesis, Biological Evaluation and In Silico Insights” (International Journal of Molecular Sciences, 2019)

Legend:
hCA IX = hCA IX (Homo sapiens, UniProt Q16790); assay: stopped-flow CO2 hydrase assay; details: for Selectivity ratio I/IX: KI hCA I / KI hCA IX; for Selectivity ratio II/IX: KI hCA II / KI hCA IX
Description: (§2) An Applied Photophysics stopped-flow instrument was used for assaying the CA catalysed CO2 hydration activity, as reported earlier [17]. The inhibition constants were obtained by non-linear least-squares methods using PRISM 3 and the Cheng-Prusoff equation as reported earlier, and represent the mean from at least three different determinations. The four tested CA isofoms were recombinant ones obtained in-house as reported earlier [26, 27, 28, 29].

NCI-H226 = assay: NCI one-dose SRB assay; type: cell-based; details: Homo sapiens, NCI-H226 (Non-Small Cell Lung Cancer), 1.00E-5 Molar, read-out: Growth Percent
Procedure, shortened: (§1)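 Single-dose screen at 10^−5 M across the NCI sixty-cell-line panel, run per the US-NCI Developmental Therapeutic Program protocol. Cell growth and viability were read by sulforhodamine B colorimetric assay.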

HCT-15 = assay: NCI one-dose SRB assay; type: cell-based; details: Homo sapiens, HCT-15 (Colon Cancer), 1.00E-5 Molar, read-out: Growth Percent
Procedure, shortened: as §1

MALME-3M = assay: NCI one-dose SRB assay; type: cell-based; details: Homo sapiens, MALME-3M (Melanoma), 1.00E-5 Molar, read-out: Growth Percent
Procedure, shortened: as §1

SF-268 = assay: NCI one-dose SRB assay; type: cell-based; details: Homo sapiens, SF-268 (CNS Cancer), 1.00E-5 Molar, read-out: Growth Percent
Procedure, shortened: as §1

T-47D = assay: NCI one-dose SRB assay; type: cell-based; details: Homo sapiens, T47D, T-47D (Breast Cancer), 1.00E-5 Molar, read-out: Growth Percent
Procedure, shortened: as §1

NCI-H460 = assay: NCI one-dose SRB assay; type: cell-based; details: Homo sapiens, NCI-H460 (Non-Small Cell Lung Cancer), 1.00E-5 Molar, read-out: Growth Percent
Procedure, shortened: as §1

RPMI-8226 = assay: NCI one-dose SRB assay; type: cell-based; details: Homo sapiens, RPMI-8226 (Leukemia), 1.00E-5 Molar, read-out: Growth Percent
Procedure, shortened: as §1

HCT-116 = assay: NCI one-dose SRB assay; type: cell-based; details: Homo sapiens, HCT-116 (Colon Cancer), 1.00E-5 Molar, read-out: Growth Percent
Procedure, shortened: as §1

ACHN = assay: NCI one-dose SRB assay; type: cell-based; details: Homo sapiens, ACHN (Renal Cancer), 1.00E-5 Molar, read-out: Growth Percent
Procedure, shortened: as §1

NCI-H522 = assay: NCI one-dose SRB assay; type: cell-based; details: Homo sapiens, NCI-H522 (Non-Small Cell Lung Cancer), 1.00E-5 Molar, read-out: Growth Percent
Procedure, shortened: as §1

MOLT-4 = assay: NCI one-dose SRB assay; type: cell-based; details: Homo sapiens, MOLT-4 (Leukemia), 1.00E-5 Molar, read-out: Growth Percent
Procedure, shortened: as §1

MDA-MB-468 = assay: NCI one-dose SRB assay; type: cell-based; details: Homo sapiens, MDA-MB-468 (Breast Cancer), 1.00E-5 Molar, read-out: Growth Percent
Procedure, shortened: as §1

COLO 205 = assay: NCI one-dose SRB assay; type: cell-based; details: Homo sapiens, COLO 205 (Colon Cancer), 1.00E-5 Molar, read-out: Growth Percent
Procedure, shortened: as §1

SK-OV-3 = assay: NCI one-dose SRB assay; type: cell-based; details: Homo sapiens, SK-OV-3 (Ovarian Cancer), 1.00E-5 Molar, read-out: Growth Percent
Procedure, shortened: as §1

U251 = assay: NCI one-dose SRB assay; type: cell-based; details: Homo sapiens, U-251, U251 (CNS Cancer), 1.00E-5 Molar, read-out: Growth Percent
Procedure, shortened: as §1

NCI-H322M = assay: NCI one-dose SRB assay; type: cell-based; details: Homo sapiens, NCI-H322M (Non-Small Cell Lung Cancer), 1.00E-5 Molar, read-out: Growth Percent
Procedure, shortened: as §1

M14 = assay: NCI one-dose SRB assay; type: cell-based; details: Homo sapiens, M14 (Melanoma), 1.00E-5 Molar, read-out: Growth Percent
Procedure, shortened: as §1

786-0 = assay: NCI one-dose SRB assay; type: cell-based; details: Homo sapiens, 786-0 (Renal Cancer), 1.00E-5 Molar, read-out: Growth Percent
Procedure, shortened: as §1

DU-145 = assay: NCI one-dose SRB assay; type: cell-based; details: Homo sapiens, DU-145 (Prostate Cancer), 1.00E-5 Molar, read-out: Growth Percent
Procedure, shortened: as §1

SF-539 = assay: NCI one-dose SRB assay; type: cell-based; details: Homo sapiens, SF-539 (CNS Cancer), 1.00E-5 Molar, read-out: Growth Percent
Procedure, shortened: as §1

SF-295 = assay: NCI one-dose SRB assay; type: cell-based; details: Homo sapiens, SF-295 (CNS Cancer), 1.00E-5 Molar, read-out: Growth Percent
Procedure, shortened: as §1

MDA-MB-231/ATCC = assay: NCI one-dose SRB assay; type: cell-based; details: Homo sapiens, MDA-MB-231/ATCC (Breast Cancer), 1.00E-5 Molar, read-out: Growth Percent
Procedure, shortened: as §1

SK-MEL-5 = assay: NCI one-dose SRB assay; type: cell-based; details: Homo sapiens, SK-MEL-5 (Melanoma), 1.00E-5 Molar, read-out: Growth Percent
Procedure, shortened: as §1

HL-60(TB) = assay: NCI one-dose SRB assay; type: cell-based; details: Homo sapiens, HL-60(TB) (Leukemia), 1.00E-5 Molar, read-out: Growth Percent
Procedure, shortened: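 NCI-60 one-dose protocol: compound at 10^−5 M; growth and viability quantified with SRB dye.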

HOP-62 = assay: NCI one-dose SRB assay; type: cell-based; details: Homo sapiens, HOP-62 (Non-Small Cell Lung Cancer), 1.00E-5 Molar, read-out: Growth Percent
Procedure, shortened: as §1

PC-3 = assay: NCI one-dose SRB assay; type: cell-based; details: Homo sapiens, PC-3 (Prostate Cancer), 1.00E-5 Molar, read-out: Growth Percent
Procedure, shortened: as §1

hCA II = hCA II (Homo sapiens, UniProt P00918); assay: stopped-flow CO2 hydrase assay
Description: as §2

[1] = system: panel of sixty cancer cell lines; assay: NCI one-dose SRB assay, whole panel; type: cell-based; details: Homo sapiens, mean over the panel, 1.00E-5 Molar, read-out: Mean Growth Percent
Protocol: First, all diamide-based benzenesulfonamides herein reported 5a–h were screened for their antitumor activity at one dose (10^−5 M) assay against a panel of sixty cancer cell lines through the National Cancer Institute (NCI) Developmental Therapeutic Program (www.dtp.nci.nih.gov), according to US-NCI protocol. The cell growth and cell viability were evaluated using the sulforhodamine B (SRB) colorimetric assay.
This assay was carried out according to the protocol of the Drug Evaluation Branch, NCI, Bethesda. The cell growth and cell viability were evaluated using the sulforhodamine B (SRB) colorimetric assay, as reported earlier.

hCA I = hCA I (Homo sapiens, UniProt P00915); assay: stopped-flow CO2 hydrase assay
hCA I, sequence (P00915 whole entry): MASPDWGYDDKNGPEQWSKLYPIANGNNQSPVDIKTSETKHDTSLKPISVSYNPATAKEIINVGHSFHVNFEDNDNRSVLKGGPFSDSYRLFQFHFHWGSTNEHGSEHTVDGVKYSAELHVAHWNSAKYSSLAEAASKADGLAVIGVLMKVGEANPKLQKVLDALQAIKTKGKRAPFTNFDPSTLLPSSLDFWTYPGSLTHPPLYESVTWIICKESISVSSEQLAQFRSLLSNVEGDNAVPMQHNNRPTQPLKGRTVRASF
Description: as §2

SMILES | Ki (hCA IX) [nM] | Selectivity ratio I/IX (hCA IX) | Selectivity ratio II/IX (hCA IX) | activity at 10 µM (NCI-H226) [%] | activity at 10 µM (HCT-15) [%] | activity at 10 µM (MALME-3M) [%] | activity at 10 µM (SF-268) [%] | activity at 10 µM (T-47D) [%] | activity at 10 µM (NCI-H460) [%] | activity at 10 µM (RPMI-8226) [%] | activity at 10 µM (HCT-116) [%] | activity at 10 µM (ACHN) [%] | activity at 10 µM (NCI-H522) [%] | activity at 10 µM (MOLT-4) [%] | activity at 10 µM (MDA-MB-468) [%] | activity at 10 µM (COLO 205) [%] | activity at 10 µM (SK-OV-3) [%] | activity at 10 µM (U251) [%] | activity at 10 µM (NCI-H322M) [%] | activity at 10 µM (M14) [%] | further results
NS(=O)(=O)c1ccc(NC(=O)C(=Cc2ccc(Br)cc2)NC(=O)c2ccccc2)cc1 [Compound 5c, N-(1-(4-Bromophenyl)-3-oxo-3-((4-sulfamoylphenyl)amino)prop-1-en-2-yl)benzamide] | 33.5 | 71.6 | 7.5 | 97.2 | 92.5 | 92.2 | 99.6 | 92.1 | 107 | 97.2 | 92 | 100 | 87.9 | 89.5 | 99.9 | 105 | 101 | 93.1 | 100 | 109 | activity at 10 µM (786-0): 96%; activity at 10 µM (DU-145): 108%; activity at 10 µM (SF-539): 92.8%; activity at 10 µM (SF-295): 99.2%; activity at 10 µM (MDA-MB-231/ATCC): 105%; activity at 10 µM (SK-MEL-5): 93.1%; activity at 10 µM (HL-60(TB)): 96.9%; activity at 10 µM (HOP-62): 104%; activity at 10 µM (PC-3): 92.7%; Ki (hCA II): 252 nM; activity at 10 µM [1]: 97.3%; Ki (hCA I): 2400 nM
NS(=O)(=O)c1ccc(NC(=O)C(=Cc2ccc(Cl)cc2Cl)NC(=O)c2ccccc2)cc1 [Compound 5b, N-(1-(2,4-Dichlorophenyl)-3-oxo-3-((4-sulfamoylphenyl)amino)prop-1-en-2-yl)benzamide] | 18.3 | 326.6 | 12.2 | 103 | 110 | 93.2 | 94.5 | 87.5 | 105 | 92.2 | 97.3 | 98.2 | 80.3 | 92.3 | 110 | 110 | 96.3 | 97.1 | 102 | 102 | activity at 10 µM (786-0): 104%; activity at 10 µM (DU-145): 109%; activity at 10 µM (SF-539): 95.7%; activity at 10 µM (SF-295): 104%; activity at 10 µM (MDA-MB-231/ATCC): 105%; activity at 10 µM (SK-MEL-5): 90.2%; activity at 10 µM (HL-60(TB)): 84.8%; activity at 10 µM (HOP-62): 95.7%; activity at 10 µM (PC-3): 89.4%; Ki (hCA II): 224 nM; activity at 10 µM [1]: 97%; Ki (hCA I): 5980 nM
COc1ccc(C=C(NC(=O)c2ccccc2)C(=O)Nc2ccc(S(N)(=O)=O)cc2)cc1 [Compound 5e, N-(1-(4-Methoxyphenyl)-3-oxo-3-((4-sulfamoylphenyl)amino)prop-1-en-2-yl)benzamide] | 78 | 12.9 | 1.5 | 105 | 104 | 109 | 113 | 101 | 105 | 107 | 105 | 102 | 90.5 | 104 | 108 | 110 | 97.1 | 99.4 | 110 | 107 | activity at 10 µM (786-0): 105%; activity at 10 µM (DU-145): 113%; activity at 10 µM (SF-539): 96.8%; activity at 10 µM (SF-295): 112%; activity at 10 µM (MDA-MB-231/ATCC): 110%; activity at 10 µM (SK-MEL-5): 100%; activity at 10 µM (HL-60(TB)): 99.2%; activity at 10 µM (HOP-62): 104%; activity at 10 µM (PC-3): 98.9%; Ki (hCA II): 128 nM; activity at 10 µM [1]: 103%; Ki (hCA I): 1010 nM
